Experimental data taken from PMC10914731, “Homo-BacPROTAC-induced degradation of ClpC1 as a strategy against drug-resistant mycobacteria” (Nature Communications, 2024).
≈ marks a conversion by molar mass, not a printed value. Where “and” joins values, the source holds several entries; their conditions need not be identical. Equal values may be shown once. Read-outs that look alike come from different tables or passages of the source.

Key:
Mycobacterium fortuitum = assay: microbe, parasite or virus in culture; type: cell-based
[1] = test system: Mtb (katG del) ATCC 35822; assay: microbe, parasite or virus in culture; type: cell-based; conditions: Mycobacterium tuberculosis
[2] = test system: Mycobacterium intracellulare; assay: microbe, parasite or virus in culture; type: cell-based; conditions: Mycobacterium intracellulare; mean ± SD; read-out: MIC Mycobacterium intracellulare
[3] = test system: non-replicating cells of Mtb H37Rv; type: cell-based, Mycobacterium tuberculosis
[4] = test system: M. tuberculosis H37Rv (ATCC 27294); assay: microbe, parasite or virus in culture; type: cell-based; conditions: Mycobacterium tuberculosis
Msm 607 = assay: microbe, parasite or virus in culture; type: cell-based
Mtb (moxR) FNDR-M1 = assay: microbe, parasite or virus in culture; type: cell-based
Mtb ATCC 35825 = assay: microbe, parasite or virus in culture; type: cell-based
Mycobacterium abscessus = assay: microbe, parasite or virus in culture; type: cell-based
Mtb # 11291 = assay: microbe, parasite or virus in culture; type: cell-based; conditions: for MIC: read-out: MIC Mtb # 11291
Mtb # 8673 = assay: microbe, parasite or virus in culture; type: cell-based
[5] = test system: Mtb H37Rv in THP-1 macrophages; assay: Intracellular MIC assay in THP-1 macrophages; type: cell-based, Mycobacterium tuberculosis; conditions: H37RV, 19.44 µM
Mycobacterium avium = assay: microbe, parasite or virus in culture; type: cell-based
[6] = Experiment 2, three replicate columns
[7] = Mycobacterium tuberculosis, mean, n = 2 well replicates
[8] = Mycobacterium tuberculosis, single well replicates

`CO[C@H]1/C=C/O[C@@]2(C)Oc3c(C)c(O)c4c(O)c(c(/C=N/N5CCN(C)CC5)c(O)c4c3C2=O)NC(=O)/C(C)=C\C=C\[C@H](C)[C@H](O)[C@@H](C)[C@@H](O)[C@@H](C)[C@H](OC(C)=O)[C@@H]1C` [Rifampicin, reference compound] was tested, and the “MIC (µg/ml) Mycobacterium fortuitum” value (Mycobacterium fortuitum; [6]) was 1 µg/mL (≈ 1.22 µM), the MIC (Mycobacterium fortuitum; Experiment 2, three replicate columns, read-out: MIC (µM) Mycobacterium fortuitum) was 1.22 µM and the MIC (Mycobacterium fortuitum; Mycolicibacterium fortuitum, Experiment 2, three replicate columns, read-out: MIC (µM) Mycobacterium fortuitum) was 1.22 µM. The MIC (Mycobacterium fortuitum; Mycolicibacterium fortuitum, Experiment 2, three replicate columns, read-out: MIC (µg/ml) Mycobacterium fortuitum) was 1 µg/mL, the MIC (Mycobacterium fortuitum; Mycolicibacterium fortuitum, mean ± SD, read-out: MIC Mycobacterium fortuitum) was 1.2 µM and the MIC ([1]; ATCC35822, M. tuberculosis ATCC 35822, single well replicates) was 0.00949 µM (≈ 7.81 ng/mL). The MIC ([1]; ATCC35822, Mtb (katG del) ATCC 35822, mean ± SD, n = 3 well replicates) was 0.01 µM (≈ 8.23 ng/mL), the MIC [2] was 0.2 µM (≈ 165 ng/mL) and the “inhibitory activity on non-growing Mtb H37Rv” value [3] was “retained a partial inhibitory activity”. The MIC ([4]; M. tuberculosis H37Rv 27294, single well replicates, read-out: MIC) was 0.00949 µM (≈ 7.81 ng/mL), the MIC ([4]; Mtb H37Rv, mean ± SD, n = 3 well replicates, read-out: MIC) was 0.01 µM (≈ 8.23 ng/mL) and the MIC ([4]; Set 1, read-out: MIC (Mtb H37Rv) Set 1) was 0.00948 µM and 0.0078 µg/mL. The MIC ([4]; Set 2, read-out: MIC (Mtb H37Rv) Set 2) was 0.00948 µM and 0.0078 µg/mL, the MIC ([4]; Set 3, done at a different day than Set 1 and Set 2, read-out: MIC (Mtb H37Rv) Set 3) was 0.00948 µM and 0.0078 µg/mL and the MIC ([4]; individual example (Supplementary Table 11), read-out: MIC Mtb H37Rv) was 0.01 µM and 0.01 µg/mL. For the same compound, the MIC ([4]; mean of 3 experiments +/- SD, unit taken from the sets above in the same table, read-out: MIC data (Mtb H37Rv) (+/- SD)) was 0.009 µM and 0.0078 µg/mL, the MIC (Msm 607; Mycolicibacterium smegmatis, 607, read-out: MIC Msm #607, individual example (Supplementary Table 11)) was 9.7 µM and 8 µg/mL and the MIC (Msm 607; Mycolicibacterium smegmatis, ATCC607, Set-3, done at a different day than Set 1 and Set 2, read-out: MIC (Msm ATCC607) Set-3) was 9.72 µM and 8 µg/mL. The MIC (Msm 607; Mycolicibacterium smegmatis, ATCC607, mean of 3 experiments ± SD, read-out: MIC including standard deviations (Msm ATCC607)) was 13 µM and 10.6 µg/mL, the MIC (Msm 607; Mycolicibacterium smegmatis, ATCC607, read-out: MIC (Msm ATCC607) Set-1) was 9.72 µM and 8 µg/mL and the MIC (Msm 607; Mycolicibacterium smegmatis, ATCC607, read-out: MIC (Msm ATCC607) Set-2) was 19.4 µM and 16 µg/mL. The MIC (Mtb (moxR) FNDR-M1; M. tuberculosis FNDR-M1, single well replicates) was 0.019 µM and 0.00949 µM (2×), the MIC (Mtb (moxR) FNDR-M1; Mycobacterium tuberculosis, Mtb (moxR) FNDR-M1, mean ± SD, n = 3 well replicates) was 0.01 µM (≈ 8.23 ng/mL) and the MIC (Mtb ATCC 35825; Mycobacterium tuberculosis, ATCC35825, mean, n = 2 well replicates) was 0.005 µM and 0.004 µg/mL. For the same compound, the MIC (Mtb ATCC 35825; Mycobacterium tuberculosis, ATCC35825, single well replicates) was 0.004 µg/mL and 0.005 µM, the MIC (Mtb ATCC 35825; single well replicates) was 0.005 µM (≈ 4.11 ng/mL) and the “MIC Mtb ATCC 35825” value (Mtb ATCC 35825; single well replicates) was 0.004 µg/mL (≈ 0.00486 µM). The “MIC (µg/ml) Mycobacterium abscessus” value (Mycobacterium abscessus; [6]) was 8 µg/mL (≈ 9.72 µM), the MIC (Mycobacterium abscessus; Experiment 2, three replicate columns, read-out: MIC (µM) Mycobacterium abscessus) was 9.72 µM and the MIC (Mycobacterium abscessus; Mycobacteroides abscessus, Experiment 2, three replicate columns, read-out: MIC (µM) Mycobacterium abscessus) was 9.72 µM. For the same compound, the MIC (Mycobacterium abscessus; Mycobacteroides abscessus, Experiment 2, three replicate columns, read-out: MIC (µg/ml) Mycobacterium abscessus) was 8 µg/mL, the MIC (Mycobacterium abscessus; Mycobacteroides abscessus, mean ± SD, read-out: MIC Mycobacterium abscessus) was 9.7 µM and the MIC (Mtb # 11291; [7]) was 0.005 µM and 0.004 µg/mL. For the same compound, the MIC (Mtb # 11291; [8]) was 0.005 µM and 0.004 µg/mL, the “MIC Mtb # 11291” value (Mtb # 11291; single well replicates) was 0.004 µg/mL (≈ 0.00486 µM) and the MIC (Mtb # 11291; single well replicates) was 0.005 µM (≈ 4.11 ng/mL). For the same compound, the MIC (Mtb # 8673; [7]) was 38.9 µM and 32 µg/mL, the MIC (Mtb # 8673; [8]) was 38.9 µM and 32 µg/mL and the MIC (Mtb # 8673; single well replicates) was 38.88 µM (≈ 32000 ng/mL). The “MIC Mtb # 8673” value (Mtb # 8673; single well replicates) was 32 µg/mL (≈ 38.9 µM), the intracellular viable mycobacteria ([5]; 96 h) was 4.26 log10 cfu/ml and the intracellular viable mycobacteria ([5]; 168 h) was 3.56 log10 cfu/ml. The “MIC (µg/ml) Mycobacterium avium” value (Mycobacterium avium; [6]) was 0.25 µg/mL (≈ 0.304 µM), the MIC (Mycobacterium avium; Experiment 2, three replicate columns, read-out: MIC (µM) Mycobacterium avium) was 0.30 µM and the MIC (Mycobacterium avium; Mycobacterium avium, Experiment 2, three replicate columns, read-out: MIC (µM) Mycobacterium avium) was 0.3 µM. It also gave an MIC (Mycobacterium avium; Mycobacterium avium, Experiment 2, three replicate columns, read-out: MIC (µg/ml) Mycobacterium avium) of 0.25 µg/mL and an MIC (Mycobacterium avium; Mycobacterium avium, mean ± SD, read-out: MIC Mycobacterium avium) of 0.3 µM.
